# Experiments:
# A549 cells [1] = experiment: MitoTracker Green FM flow cytometry (mitochondrial mass), A549; conditions: A549, 48 h at IC50 concentration
# [2] = Black lipid membrane (BLM) ionic current; conditions: at −60 mV, 50/150 mM KCl (cis/trans) gradient
# [3] = system: SW620 human metastatic colon cancer cells; experiment: MTT assay, SW620 cells; format: cell-based; conditions: SW-620, 72 h, read-out: IC50 SW620
# [4] = system: A549 human lung cancer cells; experiment: MTT assay, A549 cells; format: cell-based; conditions: A549, 72 h, read-out: IC50 A549
# [5] = system: SW480 human primary colon cancer cells; experiment: MTT assay, SW480 cells; format: cell-based; conditions: SW480, 72 h, read-out: IC50 SW480
# [6] = system: PC3 human metastatic prostate cancer cells; experiment: MTT assay, PC3 cells; format: cell-based; conditions: PC-3, 72 h, read-out: IC50 PC3
# A549 cells [7] = experiment: MitoTracker Red CMXRos flow cytometry (mitochondrial membrane potential), A549; conditions: A549, 48 h at IC50 concentration
# prostate cancer cells = system: prostate cancer cells; design: method as in PMID 21159605; conditions: no significant effects on normal prostate epithelial cells; cited from earlier work
structure (smiles),measurement,setting,value
CC[C@@H](C(=O)[C@@H](C)[C@@H](O)[C@H](C)[C@@H]1O[C@@H]([C@@H](CC)C(=O)OCCCCCC[P+](c2ccccc2)(c2ccccc2)c2ccccc2)CC[C@@H]1C)[C@H]1O[C@]2(C=C[C@@H](OC(=O)CCC(=O)OCCCCCC[P+](c3ccccc3)(c3ccccc3)c3ccccc3)[C@]3(CC[C@@](C)([C@H]4CC[C@](O)(CC)[C@H](C)O4)O3)O2)[C@H](C)C[C@@H]1C [1f],cells positive for MTGreen fluorescence,A549 cells [1],61.6%
same,ionic current through artificial membrane,[2],−10 pA
CCC1(C2OC(C3OC(O)(Cn4cc(CNC(=O)CCC[P+](c5ccccc5)(c5ccccc5)c5ccccc5)nn4)C(C)CC3C)CC2C)CCC(C2(C)CCC3(CC(O)C(C)C(C(C)C(OC)C(C)C(=O)O)O3)O2)O1 (centres unmarked) [2c],IC50,[3],10.6 ± 0.4 µM
same,IC50,[4],14.9 ± 3.4 µM
same,IC50,[5],18.3 ± 0.4 µM
same,IC50,[6],14.5 ± 2.1 µM
CCC1(C2OC(C3OC(O)(COC(=O)CCC(=O)OCCC[P+](c4ccccc4)(c4ccccc4)c4ccccc4)C(C)CC3C)CC2C)CCC(C2(C)CCC3(CC(O)C(C)C(C(C)C(OC)C(C)C(=O)OCCC[P+](c4ccccc4)(c4ccccc4)c4ccccc4)O3)O2)O1 (centres unmarked) [2f],MTRed CMXRos positive stained cells,A549 cells [7],22.5%
same,IC50,[3],2.3 ± 0.4 µM
same,IC50,[4],1.3 ± 0.2 µM
same,IC50,[5],1.7 ± 0.3 µM
same,IC50,[6],1.4 ± 0.1 µM
CC[C@@H](C(=O)[C@@H](C)[C@@H](O)[C@H](C)[C@@H]1O[C@@H]([C@@H](CC)C(=O)O)CC[C@@H]1C)[C@H]1O[C@]2(C=C[C@H](n3cc(COC(=O)CCC[P+](c4ccccc4)(c4ccccc4)c4ccccc4)nn3)[C@]3(CC[C@@](C)([C@H]4CC[C@](O)(CC)[C@H](C)O4)O3)O2)[C@H](C)C[C@@H]1C [1b],IC50,[3],16.8 ± 4.4 µM
same,IC50,[4],3.9 ± 0.8 µM
same,IC50,[5],8.8 ± 2.4 µM
same,IC50,[6],5.5 ± 1.4 µM
CC[C@@H](C(=O)[C@@H](C)[C@@H](O)[C@H](C)[C@@H]1O[C@@H]([C@@H](CC)C(=O)O)CC[C@@H]1C)[C@H]1O[C@]2(C=C[C@H](NC(=O)CCC[P+](c3ccccc3)(c3ccccc3)c3ccccc3)[C@]3(CC[C@@](C)([C@H]4CC[C@](O)(CC)[C@H](C)O4)O3)O2)[C@H](C)C[C@@H]1C [1e],IC50,[3],10.9 ± 2.6 µM
same,IC50,[4],5.1 ± 0.8 µM
same,IC50,[5],10.4 ± 2.3 µM
same,IC50,[6],4 ± 0.7 µM
CC[C@@H](C(=O)[C@@H](C)[C@@H](O)[C@H](C)[C@@H]1O[C@@H]([C@@H](CC)C(=O)O)CC[C@@H]1C)[C@H]1O[C@]2(C=C[C@H](n3cc(C[P+](c4ccccc4)(c4ccccc4)c4ccccc4)nn3)[C@]3(CC[C@@](C)([C@H]4CC[C@](O)(CC)[C@H](C)O4)O3)O2)[C@H](C)C[C@@H]1C [1a],IC50,[3],16.4 ± 2.4 µM
same,IC50,[4],2.9 ± 0.5 µM
same,IC50,[5],9 ± 3.6 µM
same,IC50,[6],1.2 ± 0.2 µM
"CC[C@@]1([C@@H]2O[C@@H]([C@H]3O[C@@](O)(CO)[C@H](C)C[C@@H]3C)C[C@@H]2C)CC[C@H]([C@]2(C)CC[C@]3(C[C@H](O)[C@@H](C)[C@@H]([C@@H](C)[C@@H](OC)[C@H](C)C(=O)O)O3)O2)O1 [MON, Monensin A]",growth inhibition of prostate cancer cells,prostate cancer cells,selectively inhibited the growth of prostate cancer cells at nanomolar concentrations
CCCC[P+](CCCC)(CCCC)Cc1cn(CC2(O)OC(C3CC(C)C(C4(CC)CCC(C5(C)CCC6(CC(O)C(C)C(C(C)C(OC)C(C)C(=O)O)O6)O5)O4)O3)C(C)CC2C)nn1 (centres unmarked) [2d],IC50,[3],4.3 ± 0.01 µM
same,IC50,[4],1.4 ± 0.4 µM
same,IC50,[5],3.5 ± 0.1 µM
same,IC50,[6],3.1 ± 0.6 µM
CC[C@@H](C(=O)[C@@H](C)[C@@H](O)[C@H](C)[C@@H]1O[C@@H]([C@@H](CC)C(=O)O)CC[C@@H]1C)[C@H]1O[C@]2(C=C[C@H](n3cc(CNC(=O)CCC[P+](c4ccccc4)(c4ccccc4)c4ccccc4)nn3)[C@]3(CC[C@@](C)([C@H]4CC[C@](O)(CC)[C@H](C)O4)O3)O2)[C@H](C)C[C@@H]1C [1c],IC50,[3],14 ± 4.1 µM
same,IC50,[4],15.6 ± 9.1 µM
same,IC50,[5],9.8 ± 2 µM
same,IC50,[6],12.9 ± 1.3 µM
CCC1(C2OC(C3OC(O)(Cn4cc(COC(=O)CCC[P+](c5ccccc5)(c5ccccc5)c5ccccc5)nn4)C(C)CC3C)CC2C)CCC(C2(C)CCC3(CC(O)C(C)C(C(C)C(OC)C(C)C(=O)O)O3)O2)O1 (centres unmarked) [2b],IC50,[3],1.5 ± 0.2 µM
same,IC50,[4],3.4 ± 1.1 µM
same,IC50,[5],0.8 ± 0.04 µM
same,IC50,[6],0.7 ± 0.3 µM
CCC1(C2OC(C3OC(O)(Cn4cc(C[P+](c5ccccc5)(c5ccccc5)c5ccccc5)nn4)C(C)CC3C)CC2C)CCC(C2(C)CCC3(CC(O)C(C)C(C(C)C(OC)C(C)C(=O)O)O3)O2)O1 (centres unmarked) [2a],IC50,[3],0.7 ± 0.2 µM
same,IC50,[4],0.3 ± 0.02 µM
same,IC50,[5],0.5 ± 0.1 µM
same,IC50,[6],0.4 ± 0.1 µM
CCCC[P+](CCCC)(CCCC)Cc1cn([C@H]2C=C[C@]3(O[C@H]([C@@H](CC)C(=O)[C@@H](C)[C@@H](O)[C@H](C)[C@@H]4O[C@@H]([C@@H](CC)C(=O)O)CC[C@@H]4C)[C@@H](C)C[C@H]3C)O[C@@]23CC[C@@](C)([C@H]2CC[C@](O)(CC)[C@H](C)O2)O3)nn1 [1d],IC50,[3],1.8 ± 0.2 µM
same,IC50,[4],3.6 ± 0.5 µM
same,IC50,[5],2.5 ± 0.6 µM
same,IC50,[6],3.6 ± 1.6 µM
same,ionic current through artificial membrane,[2],−10 pA
CCC1(C2OC(C3OC(O)(CNC(=O)CCC[P+](c4ccccc4)(c4ccccc4)c4ccccc4)C(C)CC3C)CC2C)CCC(C2(C)CCC3(CC(O)C(C)C(C(C)C(OC)C(C)C(=O)O)O3)O2)O1 (centres unmarked) [2e],IC50,[3],28.1 ± 2.1 µM
same,IC50,[4],> 100 µM
same,IC50,[5],46.7 ± 3.1 µM
same,IC50,[6],> 100 µM
"CC[C@@H](C(=O)[C@@H](C)[C@@H](O)[C@H](C)[C@@H]1O[C@@H]([C@@H](CC)C(=O)O)CC[C@@H]1C)[C@H]1O[C@]2(C=C[C@@H](O)[C@]3(CC[C@@](C)([C@H]4CC[C@](O)(CC)[C@H](C)O4)O3)O2)[C@H](C)C[C@@H]1C [SAL, Salinomycin, reference compound]",IC50,[3],1.5 ± 0.06 µM
same,IC50,[4],1.6 ± 0.1 µM
same,IC50,[5],1.1 ± 0.04 µM
same,IC50,[6],2.7 ± 0.1 µM
